From article PMC6920801, “Conformation and Aggregation of Human Serum Albumin in the Presence of Green Tea Polyphenol (EGCg) and/or Palmitic Acid” (Biomolecules, 2019)

Biological target: T1, Human serum albumin (HSA) (Homo sapiens, UniProt P02768)
T1 construct: gene ALB; fatty acid-free albumin from human serum; CPM-labelled at Cys-34 for FRET
Test: FRET (Trp-214 to CPM-Cys-34) titration with one-site fit; Trp fluorescence quenching, CD, DLS
Assay type: binding
Source text: FRET (Trp-214 to CPM-Cys-34) titration with one-site fit; Trp fluorescence quenching, CD, DLS on Human serum albumin (HSA) | The effect was dose dependent and fit a one binding site isotherm, with a calculated maximum change in distance

T1 sequence (P02768 25-609): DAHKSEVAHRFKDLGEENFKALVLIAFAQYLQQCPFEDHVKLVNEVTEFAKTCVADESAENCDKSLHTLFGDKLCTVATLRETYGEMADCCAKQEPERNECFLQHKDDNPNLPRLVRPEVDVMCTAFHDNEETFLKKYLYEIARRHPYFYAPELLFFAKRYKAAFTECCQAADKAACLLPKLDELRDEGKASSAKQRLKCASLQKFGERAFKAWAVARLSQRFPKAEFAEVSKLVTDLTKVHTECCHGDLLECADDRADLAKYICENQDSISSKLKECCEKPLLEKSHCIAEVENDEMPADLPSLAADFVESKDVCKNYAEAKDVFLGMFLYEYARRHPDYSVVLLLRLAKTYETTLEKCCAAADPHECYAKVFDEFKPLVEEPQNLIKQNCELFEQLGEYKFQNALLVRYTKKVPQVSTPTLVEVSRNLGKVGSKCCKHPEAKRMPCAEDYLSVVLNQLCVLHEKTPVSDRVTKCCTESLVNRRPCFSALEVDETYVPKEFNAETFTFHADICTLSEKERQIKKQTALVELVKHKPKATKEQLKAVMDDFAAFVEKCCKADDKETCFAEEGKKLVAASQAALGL

SMILES: O=C(O[C@@H]1Cc2c(O)cc(O)cc2O[C@@H]1c1cc(O)c(O)c(O)c1)c1cc(O)c(O)c(O)c1 [EGCg, (-)-epigallocatechin gallate]
- EC50: 3.7 µM
